Drawing on ChEMBL document CHEMBL5678818, “Discovery of potent SOS1 inhibitors that block RAS activation via disruption of the RAS-SOS1 interaction” (Proc Natl Acad Sci U S A, 2019), this text covers Activity for 1 compound.

For test [1], the target named is T1, Megakaryocyte-associated tyrosine-protein kinase (Homo sapiens) (UniProt P42679).
T1 sequence (whole entry): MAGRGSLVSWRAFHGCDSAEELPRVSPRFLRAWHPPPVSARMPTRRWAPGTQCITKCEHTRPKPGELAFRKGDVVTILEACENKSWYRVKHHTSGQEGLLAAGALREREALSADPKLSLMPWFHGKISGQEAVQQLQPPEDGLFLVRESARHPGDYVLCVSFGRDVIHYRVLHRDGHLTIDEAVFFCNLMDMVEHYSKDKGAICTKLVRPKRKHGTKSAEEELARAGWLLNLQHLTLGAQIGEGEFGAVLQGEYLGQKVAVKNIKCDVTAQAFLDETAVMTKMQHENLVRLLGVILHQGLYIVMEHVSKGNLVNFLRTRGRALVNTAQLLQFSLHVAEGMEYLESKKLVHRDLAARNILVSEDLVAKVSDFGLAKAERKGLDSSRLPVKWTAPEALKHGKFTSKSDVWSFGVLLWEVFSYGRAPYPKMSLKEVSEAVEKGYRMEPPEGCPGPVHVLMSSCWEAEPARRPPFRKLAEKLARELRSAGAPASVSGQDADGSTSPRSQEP
Nature of the test: Inhibition of CTK (unknown origin) assessed as residual activity at 100 nM by KINOMEscan analysis relative to control.

Test [2] has as its system Epidermal growth factor receptor (Homo sapiens), P00533 [L861Q]. In words: Inhibition of EGFR L861Q mutant (unknown origin) assessed as residual activity at 100 nM by KINOMEscan analysis relative to control.
Test [3] concerns the target T2, 3-phosphoinositide-dependent protein kinase 1 (Homo sapiens) (UniProt O15530).
T2 sequence (whole entry): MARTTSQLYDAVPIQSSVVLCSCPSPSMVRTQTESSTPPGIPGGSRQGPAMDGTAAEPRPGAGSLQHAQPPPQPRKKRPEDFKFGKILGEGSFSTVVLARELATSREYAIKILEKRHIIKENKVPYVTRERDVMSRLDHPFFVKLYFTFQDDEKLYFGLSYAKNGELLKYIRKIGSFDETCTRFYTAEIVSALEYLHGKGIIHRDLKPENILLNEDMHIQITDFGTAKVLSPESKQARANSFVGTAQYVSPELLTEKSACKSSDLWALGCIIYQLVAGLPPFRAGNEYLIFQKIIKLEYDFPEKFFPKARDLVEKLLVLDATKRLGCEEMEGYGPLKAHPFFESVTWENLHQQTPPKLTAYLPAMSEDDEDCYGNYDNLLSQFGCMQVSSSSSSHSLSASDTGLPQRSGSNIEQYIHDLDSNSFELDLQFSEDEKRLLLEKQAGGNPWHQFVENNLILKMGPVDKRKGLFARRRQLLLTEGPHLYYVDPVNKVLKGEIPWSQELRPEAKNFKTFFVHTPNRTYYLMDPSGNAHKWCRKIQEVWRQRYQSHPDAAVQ
In words: Inhibition of PDPK1 (unknown origin) assessed as residual activity at 100 nM by KINOMEscan analysis relative to control.

The target of test [4] is T3, Testis-specific serine/threonine-protein kinase 1 (Homo sapiens) (UniProt Q9BXA7).
T3 sequence (whole entry): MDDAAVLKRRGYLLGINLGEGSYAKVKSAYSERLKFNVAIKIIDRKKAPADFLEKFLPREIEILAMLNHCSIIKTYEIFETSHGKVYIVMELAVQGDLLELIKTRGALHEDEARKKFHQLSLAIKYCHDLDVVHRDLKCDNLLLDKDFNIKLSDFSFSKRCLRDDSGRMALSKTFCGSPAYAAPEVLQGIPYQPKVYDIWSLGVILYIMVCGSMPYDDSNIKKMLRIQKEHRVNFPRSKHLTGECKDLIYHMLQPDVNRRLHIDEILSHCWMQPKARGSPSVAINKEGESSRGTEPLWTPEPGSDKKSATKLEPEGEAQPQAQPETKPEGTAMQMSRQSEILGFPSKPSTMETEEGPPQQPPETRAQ
Nature of the test: Inhibition of TSSK1B (unknown origin) assessed as residual activity at 100 nM by KINOMEscan analysis relative to control.

In test [5] the target is T4, Serine/threonine-protein kinase ULK1 (Homo sapiens) (UniProt O75385).
T4 sequence (whole entry): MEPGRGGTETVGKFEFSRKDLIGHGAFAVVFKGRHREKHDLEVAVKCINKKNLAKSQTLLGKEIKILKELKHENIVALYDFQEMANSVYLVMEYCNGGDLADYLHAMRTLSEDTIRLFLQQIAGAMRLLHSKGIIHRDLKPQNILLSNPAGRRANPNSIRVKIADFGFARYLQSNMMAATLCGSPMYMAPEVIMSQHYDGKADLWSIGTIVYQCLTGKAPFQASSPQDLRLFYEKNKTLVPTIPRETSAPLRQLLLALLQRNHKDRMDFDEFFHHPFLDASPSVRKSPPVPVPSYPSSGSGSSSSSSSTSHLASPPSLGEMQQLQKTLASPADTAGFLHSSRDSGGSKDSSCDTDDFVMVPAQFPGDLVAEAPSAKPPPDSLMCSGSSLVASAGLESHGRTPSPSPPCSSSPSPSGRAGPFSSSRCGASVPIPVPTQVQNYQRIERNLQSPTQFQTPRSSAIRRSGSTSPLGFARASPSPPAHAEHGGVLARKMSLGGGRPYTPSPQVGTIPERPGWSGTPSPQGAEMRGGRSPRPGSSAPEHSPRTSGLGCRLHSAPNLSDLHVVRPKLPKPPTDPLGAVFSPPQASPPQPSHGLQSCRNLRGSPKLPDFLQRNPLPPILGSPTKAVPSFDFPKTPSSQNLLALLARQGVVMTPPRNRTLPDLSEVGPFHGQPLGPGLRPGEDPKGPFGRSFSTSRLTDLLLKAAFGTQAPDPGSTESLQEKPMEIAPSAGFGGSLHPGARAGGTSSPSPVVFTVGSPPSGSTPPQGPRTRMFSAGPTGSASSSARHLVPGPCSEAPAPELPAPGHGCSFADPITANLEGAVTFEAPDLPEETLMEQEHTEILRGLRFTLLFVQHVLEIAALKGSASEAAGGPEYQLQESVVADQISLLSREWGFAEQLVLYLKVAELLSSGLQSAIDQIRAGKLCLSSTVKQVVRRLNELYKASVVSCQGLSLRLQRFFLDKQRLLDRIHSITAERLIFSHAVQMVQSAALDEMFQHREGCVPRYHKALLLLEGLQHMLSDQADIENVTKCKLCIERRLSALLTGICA
In words: Inhibition of ULK1 (unknown origin) assessed as residual activity at 100 nM by KINOMEscan analysis relative to control.

Turning to `COc1cc2ncnc(N[C@H](C)c3cccc4ccccc34)c2cc1OC`, the Activity in test [1] came out at 64%; in test [2], 95%; in test [3] it was 79%; in test [4] it was 84%; in test [5], 96%.
